Experimental data reported in US10035814B2, “Guanine analogs as telomerase substrates and telomere length affectors” (Geron Corporation, priority 2011, dated 2018).
Values joined by “and” are separate entries in the source; they are usually repeats but may differ in a detail not shown here. Equal values may be shown once.

Experiments:
telomerase in HT3 cells = telomerase in HT3 cells (Homo sapiens (Human), UniProt O14746); assay: Ex vivo TRAP assay in HT3 cells; assay type: cell-based; details: for EC50: Table 8, assay not given, repeat determinations, values coincide with Ex Vivo TRAP, read-out: EC50
telomerase in HT3 cells, sequence (O14746 whole entry): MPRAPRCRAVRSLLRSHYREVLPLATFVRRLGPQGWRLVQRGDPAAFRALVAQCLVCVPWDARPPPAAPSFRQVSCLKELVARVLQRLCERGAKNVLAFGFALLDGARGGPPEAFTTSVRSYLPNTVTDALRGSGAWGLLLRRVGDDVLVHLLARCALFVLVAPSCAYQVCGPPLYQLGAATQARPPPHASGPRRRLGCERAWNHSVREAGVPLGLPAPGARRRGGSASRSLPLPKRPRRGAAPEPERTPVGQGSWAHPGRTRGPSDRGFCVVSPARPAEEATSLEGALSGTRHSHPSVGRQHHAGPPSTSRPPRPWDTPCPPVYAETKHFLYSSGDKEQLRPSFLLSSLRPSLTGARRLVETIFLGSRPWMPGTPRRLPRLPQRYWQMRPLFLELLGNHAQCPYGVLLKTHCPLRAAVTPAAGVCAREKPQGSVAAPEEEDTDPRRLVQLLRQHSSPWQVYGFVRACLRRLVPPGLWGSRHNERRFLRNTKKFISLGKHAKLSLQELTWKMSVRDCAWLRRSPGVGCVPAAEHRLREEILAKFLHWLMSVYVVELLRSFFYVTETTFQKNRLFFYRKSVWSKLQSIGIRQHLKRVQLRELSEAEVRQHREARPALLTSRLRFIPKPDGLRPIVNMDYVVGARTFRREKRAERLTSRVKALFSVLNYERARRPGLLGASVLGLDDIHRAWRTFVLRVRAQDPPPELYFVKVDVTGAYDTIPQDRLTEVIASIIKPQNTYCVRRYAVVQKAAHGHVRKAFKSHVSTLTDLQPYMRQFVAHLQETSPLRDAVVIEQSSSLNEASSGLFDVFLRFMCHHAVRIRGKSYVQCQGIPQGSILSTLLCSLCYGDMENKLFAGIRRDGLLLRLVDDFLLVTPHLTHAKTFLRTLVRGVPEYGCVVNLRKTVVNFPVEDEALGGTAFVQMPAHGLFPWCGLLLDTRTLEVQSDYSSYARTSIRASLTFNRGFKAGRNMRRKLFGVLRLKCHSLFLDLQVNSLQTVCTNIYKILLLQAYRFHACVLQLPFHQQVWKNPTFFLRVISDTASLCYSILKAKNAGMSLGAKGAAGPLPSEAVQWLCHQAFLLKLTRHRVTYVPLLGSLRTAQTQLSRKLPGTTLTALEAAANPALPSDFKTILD
telomerase in HT3 cells, sequence (O60832 whole entry partner): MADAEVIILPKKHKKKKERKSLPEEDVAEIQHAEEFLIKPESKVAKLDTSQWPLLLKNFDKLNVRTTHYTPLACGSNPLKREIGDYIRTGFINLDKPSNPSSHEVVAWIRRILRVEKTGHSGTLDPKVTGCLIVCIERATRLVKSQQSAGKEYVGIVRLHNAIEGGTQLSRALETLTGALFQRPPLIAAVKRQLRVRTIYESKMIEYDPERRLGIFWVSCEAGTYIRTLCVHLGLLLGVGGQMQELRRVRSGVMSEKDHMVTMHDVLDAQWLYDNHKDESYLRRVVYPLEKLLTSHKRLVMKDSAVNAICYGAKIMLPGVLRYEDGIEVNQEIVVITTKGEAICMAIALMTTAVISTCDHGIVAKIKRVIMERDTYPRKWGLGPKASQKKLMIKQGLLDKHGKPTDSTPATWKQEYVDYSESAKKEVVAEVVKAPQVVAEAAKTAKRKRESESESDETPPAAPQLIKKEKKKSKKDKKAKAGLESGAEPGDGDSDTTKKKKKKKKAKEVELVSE
telomerase in HT3 cells, sequence (Q9NX24 whole entry partner): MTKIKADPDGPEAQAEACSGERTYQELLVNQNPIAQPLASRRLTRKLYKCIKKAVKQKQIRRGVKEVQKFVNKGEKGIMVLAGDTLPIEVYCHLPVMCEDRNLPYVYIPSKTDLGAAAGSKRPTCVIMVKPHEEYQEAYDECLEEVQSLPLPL
telomerase in HT3 cells, sequence (Q9NPE3 whole entry partner): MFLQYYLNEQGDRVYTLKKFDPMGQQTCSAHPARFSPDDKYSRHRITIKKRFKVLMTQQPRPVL
telomerase in HT3 cells, sequence (Q9NY12 whole entry partner): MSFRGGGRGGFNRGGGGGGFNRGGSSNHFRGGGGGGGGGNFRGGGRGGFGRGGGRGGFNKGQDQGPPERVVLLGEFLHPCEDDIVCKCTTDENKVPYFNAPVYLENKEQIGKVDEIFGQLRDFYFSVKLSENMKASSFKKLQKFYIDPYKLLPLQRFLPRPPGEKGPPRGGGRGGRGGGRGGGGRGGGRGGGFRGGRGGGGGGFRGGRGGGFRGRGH
telomerase in HT3 cells, sequence (Q9BUR4 whole entry partner): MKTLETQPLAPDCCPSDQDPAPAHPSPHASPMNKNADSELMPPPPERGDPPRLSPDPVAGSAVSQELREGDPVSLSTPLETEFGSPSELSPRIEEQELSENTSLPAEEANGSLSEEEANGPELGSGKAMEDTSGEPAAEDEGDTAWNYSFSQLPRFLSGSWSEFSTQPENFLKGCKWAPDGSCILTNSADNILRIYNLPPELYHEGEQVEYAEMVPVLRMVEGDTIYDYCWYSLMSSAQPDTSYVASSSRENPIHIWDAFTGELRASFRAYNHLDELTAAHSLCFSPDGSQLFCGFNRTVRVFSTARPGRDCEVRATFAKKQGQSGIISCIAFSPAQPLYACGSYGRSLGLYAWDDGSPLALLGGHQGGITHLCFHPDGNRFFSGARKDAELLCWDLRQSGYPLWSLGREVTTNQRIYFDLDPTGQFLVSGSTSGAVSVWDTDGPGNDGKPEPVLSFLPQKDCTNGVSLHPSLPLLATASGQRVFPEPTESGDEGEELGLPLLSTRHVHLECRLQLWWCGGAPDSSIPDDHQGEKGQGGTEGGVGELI
Protocol: HT3 cells were treated for three days with increasing concentrations of PMPG-diisopropyloxy ester ranging from 0.2 μM to 20 μM. Cells (HT3 RPMI+10% PBS) were incubated with compound for 24 hr after which PSTS primer (phosphorothioate-d(AATCCGTCGAGCAGAGTT (SEQ ID NO: 6) containing a 5′ Cy-5 label) (7.5 μM) and fresh compound are added for an additional 24 hr. Cells were lysed and endogenous telomerase inactivated by heating (15 min, 75° C.). Products were amplified by 30 cycles of PCR under TRAP conditions set forth above and quantified. The results of two independent experiments are shown in Table 4.
HT3 cells were treated for three days with increasing concentrations of one or more of the indicated compounds ranging from 0.2 μM to 20 μM. Cells (HT3 RPMI+10% FBS) were incubated with compound for 24 hours, after which PSTS primer (phosphorothioate-d AATCCGTCGAGCAGAGTT (SEQ ID NO: 6) containing a 5′ Cy-5 label) (7.5 μM) and fresh compound were added for an additional 24 hours. Cells were lysed and endogenous telomerase inactivated by heating (15 minutes, 75° C.). Products were amplified by 30 cycles of PCR under TRAP conditions set forth in Kim et al., Science 266:2011, […] (which reference is incorporated herein in its entirety) and quantified.

A549 cells = assay: Telomere repeat fragment (TRF) assay using A549 cells; assay type: cell-based; details: approximately 70 population doublings
Protocol: (§1) Approximately 1-2 μg of genomic DNA from each cell line or tissue was digested by Hinf/RsaI for 2 hours at 37° C. Following DNA digestion, the genomic DNA fragments were separated on a 0.8% agarose gel and transferred to a nylon membrane by blotting. All membrane hybridization and detection reagents were provided in the TeloTAGGG Telomere Length Assay kit (Roche Diagnostics, Mannheim Germany). The blotted membranes were hybridized with digoxigenin (DIG)-labeled PNA probe specific for telomeric repeats, followed by incubation with anti-DIG-antibody-alkaline phosphatase according to the manufacturer's instructions. Alkaline phosphatase was quantified using the chemiluminescent substrate. Telomere lengths were calculated according to the manufacturer's instruction.
Lane 1 is a ladder from 21.2 kb to 1.9 kb. Lanes 2 and 3 have 10 μM and 5 μM, respectively, of PMPG free acid (ID#142693). Lanes 4 to 6 have 10 μM, 5 μM, and 2.5 μM, respectively, of PMPG prodrug (ID#142715). Lane 7 has 2 μM of Imetelstat (163 L). Lane 8 has 2 μM of a mismatch. Lanes 9 and 10 have 20 μM and 10 μM, respectively, of PMIBeG free acid [(((2-((2-amino-6-oxo-1H-purin-9(6H)-yl)methyl)allyl)oxy)methyl)phosphonic acid] (ID#142811). Indicated amounts each compound were added to A549 cells. After approximately 70 population doublings, the cells were harvested and telomere lengths determined using TRF. The estimated average telomere lengths were: (1) MM/mismatch control: 7 kb; (2) Imetelstat/163 L: 4.3 kb; (3) PMPG prodrug (10 μM and 5 μM): 4 kb; (4) PMPG free acid (5 μM and 10 μM): 4 kb; (5) PMIBeG prodrug (50 μM): 4.3 kb; (6) PMIBeG free acid (20 μM): 5 kb.

[1] = Cytotoxicity in cell culture (cells not named); assay type: cell-based
Caki-1 cells = assay: Caki-1 tumor growth in SCID hairless outbred (SHO) mice; assay type: in vivo; details: for tumor growth compared to vehicle control: 30 mg/kg intraperitoneal; for Intercept coefficient of linear transformed tumor growth curve / Slope coefficient of linear transformed tumor growth curve: linear mixed effects model, change versus vehicle
Protocol: Low-passage Caki-1 cells were injected subcutaneously into the flank of SCID hairless outbred (SHO) mice receiving 30 mg/kg of one of the following via intraperitoneal injection: vehicle (PBS with 0.4% Tween 20), Imetelstat (163 L), PMPG free acid (ID#142693), or PMPG prodrug (ID#142715). Calipers were used to measure tumor length and width bi-weekly, and tumor volume was calculated. Once a tumor had grown >50 mm^3, the animal was randomly entered into a study group, either control or treatment. Animals received 30 mg/kg compound via intraperitoneal injection for the duration of the study. The control vehicle was PBS with 0.4% Tween 20. Tumor volume was measured bi-weekly, and animals were sacrificed either when tumor size was >2000 mm^3 or at defined study completion date.
At the conclusion of the study, a linear transformation of the tumor growth curves was performed. The slope of the growth curves for each treatment group was derived by using a linear mixed effects model. The Y-intercept was used to confirm random tumor starting size at the time of animals entering into the study.

telomerase = telomerase (Homo sapiens (Human), UniProt O14746); assay: Primer extension assay for telomerase activity; assay type: biochemical; details: prodrug itself, cell free
telomerase, sequence (O14746 whole entry): as the sequence (O14746 whole entry) above
Protocol: Purified human telomerase was incubated with d(TTAGGG)3 (SEQ ID NO: 1) and deoxy-nucleoside triphosphates for 90 minutes at 37° C. All reactions were done in the presence of 200 dTTP and 10 μM dATP (50,000 cpm/pmol a-^33P-dATP). Activity was determined by incubating affinity purified telomerase extract with 1 μM primer [d(TTAGGG)3] (SEQ ID NO: 1), 200 μM dTTP, 50 μM dGTP, 10 μM dATP, 10 μCi [α-^33P]dATP (2000-4000 Ci/mmol) in a buffer containing 50 mM (N-2-hydroxyethyl piperazine-N′-3 propanesulfonic acid)-NaOH pH 8.5, 1 mM MgCl2, 1 mM DTT, 5% glycerol, 0.5 mM EGTA and 100 mM KOAc in a final reaction volume of 40 μl. Primer extension products were analyzed on a 15% polyacrylamide gel containing 7 M urea. A characteristic telomerase ladder has multiple bands. If a compound is not a substrate then (TTAGGG)3TTA (21 nt) (SEQ ID NO: 2). If a compound is a chain terminator then (TTAGGG)3TTAG* (22 nt) (SEQ ID NO: 3).
Purified human telomerase was incubated with d(TTAGGG)3 (SEQ ID NO: 1) and deoxy-nucleoside triphosphates for 90 minutes at 37° C. All reactions were done in the presence of 200 dTTP and 10 μM dATP (50,000 cpm/pmol a-^33P-dATP). Activity was determined by incubating affinity purified telomerase extract with […] primer [d(TTAGGG)3] (SEQ ID NO: 1), […] [α-^33P]dATP (2000-4000 Ci/mmol) in a buffer containing 50 mM (N-2-hydroxyethyl piperazine-N′-3 propanesulfonic acid)-NaOH pH 8.5, 1 mM MgCl2, 1 mM DTT, 5% glycerol, 0.5 mM EGTA and 100 mM KOAc in a final reaction volume of 40 μl. Primer extension products were analyzed on a 15% polyacrylamide gel containing 7 M urea. A characteristic telomerase ladder has multiple bands. If a compound is not a substrate then (TTAGGG)3TTA (21 nt) (SEQ ID NO: 2). If a compound is a chain terminator then (TTAGGG)3TTAG* (22 nt) (SEQ ID NO: 3).

immortal U87 cells = assay: Telomere repeat fragment (TRF) assay using immortal U87 cells; assay type: cell-based; details: concentration not given at the value, approximately 20 population doublings
Protocol: as §1
Telomere repeat fragment assays using immortal U87 cells were performed. 10 μM or 20 μM PMIBeG prodrug (ID#142820) or PMPG prodrug (ID#142715) were added to the cells. Imetelstat (163 L) was used as a reference and a mismatch was used as a negative control. After approximately 20 population doublings, the cells were harvested and telomere lengths determined using TRF. The estimated average lengths were: (1) mismatch control: 5 kb; (2) Imetelstat (163 L): 3.5 kb; (3) PMIBeG prodrug (ID#142820) at 20 μM: 4 kb; (4) PMIBeG prodrug (ID#142820) at 10 μM: 4.1 kb; (5) PMPG prodrug (ID#142715): 3.5 kb.

RPE-64-tv cells = assay: Cytotoxicity in RPE-64-tv cells; assay type: cell-based
[2] = Day 10, 30 mg/kg intraperitoneal
[3] = Day 20, 30 mg/kg intraperitoneal
[4] = Day 30, 30 mg/kg intraperitoneal
[5] = Day 40, 30 mg/kg intraperitoneal
[6] = Day 50, 30 mg/kg intraperitoneal
[7] = Day 60, 30 mg/kg intraperitoneal

Which EC50 (telomerase in HT3 cells) does the source give for `CC(Cn1cnc2c(=O)[nH]c(N)nc21)OCP(=O)(O)O` (single isomer, unassigned) [ID#142693, R-(((Guanine-9-yl)propan-2-oxy)methyl) phosphonic acid] here?
The EC50 was 11.7 µM and 2.5 µM and 1.5 µM.

What about the “estimated average telomere length” value (A549 cells; 10 μM and 5 μM) of the same compound?
The value was 4 kb.

What about the cytotoxicity ([1]; 200 uM) of the same compound?
The cytotoxicity was “acutely cytotoxic”.

And the cytotoxicity ([1]; therapeutic doses (10 μM and 20 μM))?
Its cytotoxicity is “minimal cytotoxicity”.

And the “tumor growth compared to vehicle control” value (Caki-1 cells)?
The value was “reduction in tumor growth”.

What about the tumor volume (Caki-1 cells; [2]) of the same compound?
Its tumor volume is 165.1 mm^3.

What about the “tumor volume as a percentage of the tumor volume of control vehicle mice” value (“tumor volume as a percentage” below) (Caki-1 cells; [2]) of the same compound?
Its value is 91%.

And the tumor volume (Caki-1 cells; [3])?
The tumor volume was 330.8 mm^3.

And the “tumor volume as a percentage” value (Caki-1 cells; [3])?
Its value is 83%.

What about the tumor volume (Caki-1 cells; [4]) of the same compound?
The tumor volume was 581.3 mm^3.

And the “tumor volume as a percentage” value (Caki-1 cells; [4])?
The value was 78%.

What about the tumor volume (Caki-1 cells; [5]) of the same compound?
The tumor volume was 934.3 mm^3.

And the “tumor volume as a percentage” value (Caki-1 cells; [5])?
The value was 75%.

What about the tumor volume (Caki-1 cells; [6]) of the same compound?
The tumor volume was 1407.2 mm^3.

And the “tumor volume as a percentage” value (Caki-1 cells; [6])?
The value was 73%.

And the tumor volume (Caki-1 cells; [7])?
Its tumor volume is 2017.6 mm^3.

And the “tumor volume as a percentage” value (Caki-1 cells; [7])?
The value was 71%.

And the “Intercept coefficient of linear transformed tumor growth curve” value (Caki-1 cells)?
Its value is 0.096.

And the “Slope coefficient of linear transformed tumor growth curve” value (Caki-1 cells)?
The value was −0.027.

What does the source list for `CC(C)OC(=O)OCOP(=O)(COC(C)Cn1cnc2c(=O)[nH]c(N)nc21)OCOC(=O)OC(C)C` (single isomer, unassigned) [ID#142715]?
activity in the cell free telomerase assay (telomerase): inactive; IC50 (telomerase in HT3 cells; HT3 cells, 0.2 μM to 20 μM, two independent experiments, read-out: Ex vivo Assay IC 50): 1 to 3 µM and 1.2 to 3.2 µM; EC50 (telomerase in HT3 cells): 1.1 µM and 1.2 µM and 3.1 µM and 0.81 µM; estimated average telomere length (A549 cells; 10 μM and 5 μM): 4 kb; estimated average telomere length (immortal U87 cells): 3.5 kb; tumor volume (Caki-1 cells; [2]): 170.7 mm^3; tumor volume as a percentage of the tumor volume of control vehicle mice (Caki-1 cells; [2]): 94%; tumor volume (Caki-1 cells; [3]): 377.5 mm^3; tumor volume as a percentage of the tumor volume of control vehicle mice (Caki-1 cells; [3]): 95%; tumor volume (Caki-1 cells; [4]): 706.6 mm^3; tumor volume as a percentage of the tumor volume of control vehicle mice (Caki-1 cells; [4]): 95%; tumor volume (Caki-1 cells; [5]): 1186.6 mm^3; tumor volume as a percentage of the tumor volume of control vehicle mice (Caki-1 cells; [5]): 95%; tumor volume (Caki-1 cells; [6]): 1845.9 mm^3; tumor volume as a percentage of the tumor volume of control vehicle mice (Caki-1 cells; [6]): 95%; tumor volume (Caki-1 cells; [7]): 2713.0 mm^3; tumor volume as a percentage of the tumor volume of control vehicle mice (Caki-1 cells; [7]): 96%; Intercept coefficient of linear transformed tumor growth curve (Caki-1 cells): −0.093; Slope coefficient of linear transformed tumor growth curve (Caki-1 cells): −0.001

Which “estimated average telomere length” value (A549 cells; 20 μM) does the source give for `C=C(COCP(=O)(O)O)Cn1cnc2c(=O)[nH]c(N)nc21` [ID#142811, (((2-((2-amino-6-oxo-1H-purin-9(6H)-yl)methyl)allyl)oxy)methyl)phosphonic acid] here?
Its value is 5 kb.

And the “cytotoxicity compared with PMPG” value (RPE-64-tv cells)?
Its value is “less cytotoxic than PMPG”.

What about the “effect on tissue culture” value (RPE-64-tv cells; 200 μM) of the same compound?
Its value is “no effect on tissue culture”.

Which “estimated average telomere length” value (A549 cells; 2 μM) does the source give for Imetelstat [reference compound] here?
Its value is 4.3 kb.

What about the “estimated average telomere length” value (immortal U87 cells) of the same compound?
Its value is 3.5 kb.

What about the “tumor growth compared to vehicle control” value (Caki-1 cells) of the same compound?
The value was “reduction in tumor growth”.

And the tumor volume (Caki-1 cells; [2])?
Its tumor volume is 146.0 mm^3.

And the “tumor volume as a percentage” value (Caki-1 cells; [2])?
The value was 81%.

And the tumor volume (Caki-1 cells; [3])?
The tumor volume was 293.5 mm^3.

And the “tumor volume as a percentage” value (Caki-1 cells; [3])?
Its value is 74%.

And the tumor volume (Caki-1 cells; [4])?
Its tumor volume is 517.0 mm^3.

And the “tumor volume as a percentage” value (Caki-1 cells; [4])?
Its value is 70%.

What about the tumor volume (Caki-1 cells; [5]) of the same compound?
The tumor volume was 832.2 mm^3.

And the “tumor volume as a percentage” value (Caki-1 cells; [5])?
The value was 67%.

And the tumor volume (Caki-1 cells; [6])?
Its tumor volume is 1254.8 mm^3.

What about the “tumor volume as a percentage” value (Caki-1 cells; [6]) of the same compound?
The value was 65%.

And the tumor volume (Caki-1 cells; [7])?
The tumor volume was 1800.7 mm^3.

And the “tumor volume as a percentage” value (Caki-1 cells; [7])?
The value was 63%.

And the “Intercept coefficient of linear transformed tumor growth curve” value (Caki-1 cells)?
Its value is −0.074.

And the “Slope coefficient of linear transformed tumor growth curve” value (Caki-1 cells)?
The value was −0.032.
